Measurements reported in patent publication US8071548B2, “Method of reducing injury to mammalian cells” (Nono, Inc., priority 2002, dated 2011).

What was measured:
reactive oxygen species = assay: ROS production (DHR fluorescence); type: cell-based, mouse
Description: The production of reactive oxygen species (ROS) was measured with DHR. In brief, DHR is oxidized to a fluorescent rhodamine-123 (Royall and Ischiropoulos, 1993), and the consequent rise in fluorescence may be used as an indicator of ROS production.
ROS were measured as previously described (Tymianski et al., 1998; Aarts et al., 2003). In brief, cultures were pre-loaded for 30 min with 5 μM DHR and subjected to the experimental insult. DHR fluorescence was measured in a multiwell plate fluorescence scanner (Cytofluor II, PerSeptive Biosytems, Framingham, Mass., USA; 485 nm excitation, 530 emission). DHR fluorescence was normalized to baseline using the formula at (Ft−Fo)/F0; Where Ft=DHR fluorescence at time t, Fo=DHR fluorescence at time zero. DHR fluorescence images were also acquired using a microscope (465-495 nm excitation and 515-555 nm emission) as described above for TMRM.

[1] = test system: mitochondrial membrane potential; settings: 10 μM; 10 min
Description: Cultures were preincubated at 37° C. with 10 nM TMRM for 30 min. […] TMRM was maintained in the solution throughout the experiment. TMRM fluorescence was imaged on a Nikon Eclipse TE-2300 microscope using 20× objective (Nikon), a 510-560 nm bandpass excitation and 590 nm emission filter. Images were acquired using a Hamamatsu ORCA-ER digital camera and Simple PCI software (Nikon). Fluorescence from 10-30 cells was averaged and background subtracted for each image.

NMDARs = assay: Whole cell patch-clamp recordings of NMDA currents in cultured neurons; type: cell-based, mouse; settings: intracellular dialysis of 1 mM peptide, 300 μM NMDA
[2] = test system: cultured cortical neurons
[3] = test system: cortical neuronal cultures; assay: DNA fragmentation assays (TUNEL, DNA gel electrophoresis); type: cell-based, mouse
Source text: DNA fragmentation was examined using the terminal deoxynucleotidyl transferase-mediated end nick labeling (TUNEL) method (Gavrieli et al., 1992; Didenko and Hornsby, 1996; Didenko et al., 1998) and by DNA agarose gel electrophoresis (Hill et al., 2000).
TUNEL Assay: Nuclear DNA strand breaks were detected by enzymatically labeling free 3′-OH termini with modified nucleotides provided in the Apoptag kit (Intergen) using the manufacturer's instructions. Visualization of TUNEL-stained nuclei was achieved using an anti-digoxigenin antibody conjugated to a fluorescein or peroxidase reporter molecule (ApopTag Peroxidase Kits S7110 and S7100, respectively, Intergen). In fluorescence experiments, nuclei were counterstained using 5 ng/ml Hoechst 33258 (1:5000, Transduction Labs), and visualized using 465-495 nm excitation and 515-555 nm emission for fluorescein and 340 nm excitation and 510-40 nm emission for Hoechst. The number of TUNEL positive cells was expressed as a fraction of the total cell number in the field. In each culture, 4-8 random fields were quantified. Approximately 100-200 cells were counted per culture, and at least 3 experiments were performed for each set of counts.
DNA Gel Electrophoresis: DNA laddering was evaluated as described elsewhere (Hill et al., 2000). In brief, all tissue was collected from each culture well and pelleted by centrifugation (1000 rpm; 1 min). The cells were digested for 2 h at 56° C. in buffer containing (in mM) 10 Tris pH 8.0, 2 EDTA pH8, 400 NaCl, 0.5% SDS, 1 mg/ml proteinase K. Digest solution was subjected to phenol/chloroform extraction and total DNA was precipitated from the aqueous layer with an equal volume of 100% ethanol. The DNA pellet was dried, dissolved in 50 μl ddH20 and kept overnight at 4° C. 10 μg DNA was prepared on a 2% agarose gel. Gels were stained with ethidium bromide and photographed.

caspase 3 = assay: Active caspase 3 immunofluorescence; type: cell-based, mouse; settings: positive control
Description: Cultures were fixed with warm 4% paraformaldehyde and 4% sucrose in PBS for 20 min, permeabilized with 0.1% Triton X-100 for 10 min at 4° C., and blocked with 10% goat serum in PBS for 1 h at RT. Immunofluorescence was visualized with an inverted Nikon microscope using a 40× oil immersion lens. FITC, rhodamine and Hoechst were visualized using 465-495 excitation and 515-555 nm emission, 510-560 nm excitation and 590 nm emission, and 340 nm excitation and 510 nm emission, respectively. Active caspase 3 was labelled by incubating the cultures with a purified rabbit monoclonal anti-active caspase 3 antibody (1:300; BD PharMingen) and a fluorescein-conjugated goat anti-mouse IgG secondary antibody (1:500; Transduction Labs). Nitrotyrosine was labelled by incubating the cultures with a rabbit polyclonal α-nitrotyrosine primary antibody (1:300; Upstate) and a rhodamine-conjugated goat anti-rabbit IgG secondary antibody (1:500; Transduction Labs). AIF was labelled by incubating the cultures with an AIF antibody (1:200; Santa Cruz, (Zhang et al., 2002)) and a rhodamine-conjugated goat anti-mouse IgG secondary antibody (1:500; Transduction Labs). In some experiments, nuclei were counter-stained with Hoechst 33258 (1:5,000, Transduction Labs).

traumatic brain injury = assay: Lateral fluid percussion injury model of TBI; type: in vivo, Sprague-Dawley rats; settings: analyzed 24 h after injury
Description: Adult male Sprague-Dawley rats weighing approximately 350 g were ordered from Charles River and anesthesia was induced using a gaseous mixture of 1:2 oxygen:nitrous oxide with 2% halothane. The halothane level was reduced to 1% during surgical manipulations and weights were recorded prior to preparatory surgery. The preparatory surgery for these experiments included the cannulation of the left femoral vein and a 5 mm diameter craniotomy. The venous cannula is sealed and tucked inside the animal whereupon the wound is sutured. The center of the craniotomy lies about 2.5 mm to the right of the sagittal suture, between the bregma and lambda. A modified Leur-loc is attached to the perimeter of the craniotomy with superglue (FIG. 28).
Dental acrylic (GC America Inc, Alsip, Ill.) is applied around the modified Leur-loc to seal it into place. A small piece of gelfoam is placed into the opening and the skin is sutured over the entire setup. The animal is then returned to its cage. The following day, the animal is re-anesthetized, weighed, and its wound is re-opened. The gelfoam is removed and the animal is attached to the fluid percussion device via the modified Leur-loc. At this time, the animal is given a ˜20 ms saline injection at approximately 2.4 atmospheres (350 mV on the oscilloscope) using the fluid percussion injury device (Custom Design & Fabrication, Richmond, Va.) (FIG. 29).
On occasion, the animal ceases spontaneous breathing following the injury and 1-2 chest compressions are required for resuscitation. The modified Leur-loc along with the dental acrylic is removed en bloc immediately following the injury. The animal is placed on 100% oxygen while its wound is cleaned and resealed with Vetbond tissue adhesive (3M Worldwide, Maplewood, Minn.). The rat's body temperature during the recovery time is maintained at 37° C. with a homeothermic warming blanket (Harvard Bioscience Inc, Holliston, Mass.). The amount of time necessary for the righting reflex to return is recorded and the animal is placed back into its cage. At 3 h post-injury, the animal is re-anesthetized and weighed again. The wound overlying the femoral cannula is opened and the cannula is cleaned out using heparinized saline. […] The cannula is sealed, tucked again into the animal, and the wound is re-sutured. At 24 h post-injury, the animal is re-anesthetized and weighed again. The rat is transcardially perfused using heparinized saline to clean out the cardiovascular system, followed by a 4% formalin fixative solution. The rat is decapitated and left in the fixative solution overnight. The brain is extracted the following day and processed. The volume of damaged brain (FIG. 26, right graph) is assessed according to the same methods as described in Aarts et al., 2002, for assessing stroke volumes. […]

[4] = test system: cortical neuronal cultures; assay: Sublethal stretch injury with or without NMDA, cell death in cortical cultures; type: cell-based; settings: 200 μM
Description: […]. In brief, cerebral cortices from 10 to 12 embryos were incubated for 10 min in 0.05% trypsin-EDTA, dissociated by trituration, and plated on flexible membranes coated with poly-L-ornithine in 6 well plates (Flexcell International Corporation, Hillsborough, N.C.) at a density of 3.25×10^6 cells per well. Plating medium consisted of DMEM supplemented with 10% heat-inactivated horse serum (Gibco) and (in mM) 2 glutamine, 25 glucose, and 26 bicarbonate. The cultures were maintained at 37° C. in a humidified 5% CO2 atmosphere. After 3 days in vitro, growth of non-neuronal cells was halted by a 48 h exposure to 10 μM FDU-solution (5 μM uridine, 5 μM (+)-5-fluor-2′-deoxyuridine). This produces cultures in which >85% of the cells are neurons, based on immunohistochemical staining for glial fibrillary associated protein (exclusive to astrocytes), and for the NMDAR1 subunit (not shown). The cultures were used for experiments after 12-14 days in vitro.
The cultures, grown on silastic membranes as above, were placed in the Flexercell® FX-3000™ Strain Unit (Flexcell Int., Inc.), a computer-driven instrument that uses a vacuum pulse to deform the culture substrate. In all experiments, the cortical cultures were stretched to 130% of their original length for 1 s, inducing a sublethal injury as recently characterized by us (Arundine et al., 2003). The stretched neurons maintained cell membrane integrity, viability, and electrophysiological function.
Cell death was determined by serial quantitative measurements of propidium iodide (PI) fluorescence using a multiwell plate fluorescence scanner (Cytofluor II, PerSeptive Biosytems, Framingham, Mass., USA) as described previously (Sattler et al., 1997; Sattler et al., 1998). In brief, the culture medium in each tissue culture well was replaced with control solution containing 50 μg/ml PI, and a baseline fluorescence reading was taken. Sequential readings were then taken at appropriate intervals over the 20 h observation period. The fraction of dead cells in each culture at a given time was calculated as: Fraction dead=(Ft−Fo)/FNMDA Where Ft=PI fluorescence at time t, F0=initial PI fluorescence at time zero and FNMDA=background subtracted PI fluorescence of identical cultures from the same dissection and plating, 20-24 h after a 60 min exposure to 1 mM NMDA at 37° C. Based on manual observations at the time of validation of this technique, this NMDA exposure routinely produced near complete neuronal death in each culture but had no effect on surrounding glia (also see (Bruno et al., 1994; David et al., 1996; Sattler et al., 1997)). Adding Triton X-100 (0.1%) to cultures treated in this manner produced an additional 10-15% increase in PI fluorescence due to permeabilization of non-neuronal cell membranes, consistent with a 10-15% glial component in the cultures.
All experiments were performed at 37° C. Unless otherwise indicated, all solutions contained nimodipine (2 μM) and CNQX (10 μM) to restrict the actions of applied NMDA to NMDARs by preventing the secondary activation of other pathways (Sattler et al., 1998). In general, the cultures were washed ×2 with control solution and immediately stretched to 130% of their original length for 1 s. After the stretch, they were washed ×1 with control solution alone or challenged with an additional treatment (e.g., NMDA) and placed at 37° C. for 1 h. They were then washed ×1 with control solution and then with control solution containing 50 μg/ml PI to obtain a baseline reading. In pilot studies, baseline readings obtained at this stage were similar to those obtained by staining the cells with PI prior to stretch. As the stretch causes splashing of the bath solution, staining with PI after stretch reduced biohazard potential and artifacts associated with PI outside the culture well. Unstretched controls were manipulated identically to stretched cultures.

[5] = test system: transient middle cerebral artery occlusion; assay: Transient MCAO, dose study of infarct size; type: in vivo, Sprague-Dawley rats; settings: 6 mg/kg 1 h before the stroke
[6] = test system: cortical neuronal cultures; assay: Staurosporine-induced cell death in cortical cultures; type: cell-based, mouse; settings: 200 μM for 48 h, staurosporine 1 μM
[7] = 20 h post-insult, 200 μM MnTBAP or 100 μM L-NAME

## N#CC(C#N)=NNc1ccc(OC(F)(F)F)cc1 [FCCP, reference compound]
Reactive oxygen species; mitochondrial uncoupler
  DHR fluorescence: abolished all DHR fluorescence
[1]
  mitochondrial depolarization (loss of TMRM fluorescence): profound mitochondrial depolarization

## CSKDTMEKSESL
NMDARs
  peak NMDA current amplitudes: 2540±281 pA

## N[C@@H](CSN=O)C(=O)O [S-nitrosocysteine]
[2]
  NO donor toxicity: highly toxic

## CN[C@@H]1C[C@H]2O[C@@](C)([C@@H]1OC)n1c3ccccc3c3c4c(c5c6ccccc6n2c5c31)C(=O)NC4 [staurosporine]
[3]; 1 μM for 48 h
  DNA laddering by gel electrophoresis: DNA ladders suggestive of intenucleosomal DNA fragmentation
  TUNEL staining: TUNEL staining was observed
Caspase 3
  active caspase 3 staining: stained for active caspase 3

## Tat-KLSSIETDV
Traumatic brain injury; 3 hours after TBI
  total volume of injured brain: significantly reduced
Traumatic brain injury; via femoral cannula 3 hours after TBI
  fraction of dead cells in cerebral cortex and hippocampus ipsilateral to the injury: markedly reduced fraction of dead cells

## O=C(O)c1ccc(-c2c3nc(c(-c4ccc(C(=O)O)cc4)c4ccc([n-]4)c(-c4ccc(C(=O)O)cc4)c4nc(c(-c5ccc(C(=O)O)cc5)c5ccc2[n-]5)C=C4)C=C3)cc1.[Mn+3] [MnTBAP, manganese(III) tetrakis(4-benzoic acid) porphyrin]
[4]; 30 min preincubation, 20 h
  cell death in stretched cells treated with 30 μM NMDA: completely eliminated cell death
[3]; [7]
  DNA laddering after stretch followed by NMDA: virtually abolished
  TUNEL staining after stretch followed by NMDA: virtually abolished
Reactive oxygen species; 200 μM pretreatment
  DHR fluorescence (ROS production): reduced DHR fluorescence in all culture conditions
[2]; SNP 300 μM, 200 μM MnTBAP pretreatment
  SNP toxicity: reduced SNP toxicity to baseline

## CC(C(O)c1ccc(O)cc1)N1CCC(Cc2ccccc2)CC1 (centres unmarked) [Ro25-6981, reference compound]
[5]
  infarct size versus control dose: significant reduction in infarct size

## z-val-ala-asp-fluoromethylketone [z-VAD-FMK]
[4]
  cytotoxicity in stretched cultures with 30 μM NMDA: no significant reduction in cytotoxicity
  toxicity to unstretched cultures or stretch alone: not toxic
[6]
  attenuation of staurosporine-induced death: significantly reduced
[6]; listed as zvadFMK
  attenuation of staurosporine-induced death: 47%
[3]; DNA gel electrophoresis
  DNA fragmentation of neurons exposed to stretch+NMDA: did not reduce DNA fragmentation
